# In US9815796B2 (Merck Sharp & Dohme Corp., priority 2013, dated 2017):
# Biological target: human PDE2A1 (Homo sapiens (Human), UniProt O00408)
# Test: IMAP FP PDE selectivity panel, human PDE2A1
# Format: biochemical
# Conditions: Human PDE2, Lab B; read-out: Human PDE2 Ki (nM) - Lab B
# In short: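 IMAP FP format: substrate 50 nM FAM-cAMP plus 1000 nM cGMP, enzyme (insect-cell GST-tagged human PDE2A1) at ~20% conversion, 60 min reaction at room temperature. Apparent inhibition constants calculated from parallel/perpendicular fluorescence with KM 10,000 nM.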
# Sequence of human PDE2A1 (O00408 other isoform, or with tags, fused parts or gaps): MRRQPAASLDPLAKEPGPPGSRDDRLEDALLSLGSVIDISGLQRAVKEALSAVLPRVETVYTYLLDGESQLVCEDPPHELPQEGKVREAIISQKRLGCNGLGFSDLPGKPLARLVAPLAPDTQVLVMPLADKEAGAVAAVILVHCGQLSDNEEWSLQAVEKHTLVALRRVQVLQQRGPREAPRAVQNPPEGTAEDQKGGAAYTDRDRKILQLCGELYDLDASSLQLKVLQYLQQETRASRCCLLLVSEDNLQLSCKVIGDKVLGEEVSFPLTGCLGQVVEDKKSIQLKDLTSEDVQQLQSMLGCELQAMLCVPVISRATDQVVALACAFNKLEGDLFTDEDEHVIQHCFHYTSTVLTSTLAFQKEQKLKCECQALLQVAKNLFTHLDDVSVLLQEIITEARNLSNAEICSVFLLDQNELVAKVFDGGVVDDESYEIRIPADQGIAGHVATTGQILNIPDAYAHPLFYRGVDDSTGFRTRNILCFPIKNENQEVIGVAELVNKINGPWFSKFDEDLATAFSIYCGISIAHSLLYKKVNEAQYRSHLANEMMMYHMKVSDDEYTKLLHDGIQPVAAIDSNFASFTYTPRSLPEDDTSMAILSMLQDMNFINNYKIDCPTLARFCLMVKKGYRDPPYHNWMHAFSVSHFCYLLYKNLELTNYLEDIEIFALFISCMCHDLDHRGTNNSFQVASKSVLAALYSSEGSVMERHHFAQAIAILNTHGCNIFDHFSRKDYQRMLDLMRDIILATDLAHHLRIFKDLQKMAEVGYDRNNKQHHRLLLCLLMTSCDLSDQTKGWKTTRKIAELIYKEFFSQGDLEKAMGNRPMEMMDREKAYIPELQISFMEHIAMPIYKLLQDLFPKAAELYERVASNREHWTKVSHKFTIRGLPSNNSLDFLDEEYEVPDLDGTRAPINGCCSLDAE
row,SMILES,Ki
1,"Cc1nc(C(=O)N[C@@H](c2ccc(C(F)(F)F)c(F)c2)C(C)(C)O)cc(=O)[nH]1 [Example 723, N-{(1S)-1-[3-fluoro-4-(trifluoromethyl)phenyl]-2-hydroxy-2-methylpropyl}-2-methyl-6-oxo-1,6-dihydropyrimidine-4-carboxamide]",8.6 nM
2,"Cc1nc(C(=O)N[C@@H](c2ccc(OC(F)F)c(F)c2)C(C)C)cc(=O)[nH]1 [Example 624, N-{(1R)-1-[4-(difluoromethoxy)-3-fluorophenyl]-2-methylpropyl}-2-methyl-6-oxo-1,6-dihydropyrimidine-4-carboxamide]",17 nM
3,"Cc1nc(C(=O)N[C@]2(c3ccc(C(C)C)cc3)C[C@H]2C)cc(=O)[nH]1 (single isomer, unassigned) [Example 664, 2-methyl-N-{2-methyl-1-[4-(1-methylethyl)phenyl]cyclopropyl}-6-oxo-1,6-dihydropyrimidine-4-carboxamide]",~1570 nM
4,"Cc1nc(C(=O)NC(C)c2ccc(C(F)(F)C(F)(F)F)cc2)cc(=O)[nH]1 (single isomer, unassigned) [Example 684, (S)- or (R)-2-methyl-6-oxo-N-(1-(4-(perfluoroethyl)phenyl)ethyl)-1,6-dihydropyrimidine-4-carboxamide]",> 2960 nM
5,"C[C@@H](NC(=O)c1cc(=O)[nH]c(-c2ncccn2)n1)c1ccc2c(c1)OC(F)(F)O2 [Example 587, N-[(1R)-1-(2,2-difluoro-1,3-benzodioxol-5-yl)ethyl]-6-oxo-1,6-dihydro-2,2′-bipyrimidine-4-carboxamide]",71 nM
6,"CC(NC(=O)c1cc(=O)[nH]c(-c2ccccc2)n1)c1ccc(C2(C(F)(F)F)CC2)cc1 (single isomer, unassigned) [Example 691, (R)- or (S)-6-oxo-2-phenyl-N-(1-(4-(1-(trifluoromethyl)cyclopropyl)phenyl)-ethyl)-1,6-dihydropyrimidine-4-carboxamide]",39 nM
7,"CC(C)(NC(=O)c1cc(=O)[nH]c(-c2ncccn2)n1)c1ccc2c(c1)OC(F)(F)O2 [Example 588, N-[1-(2,2-difluoro-1,3-benzodioxol-5-yl)-1-methylethyl]-6-oxo-1,6-dihydro-2,2′-bipyrimidine-4-carboxamide]",303 nM
8,"Cc1nc(C(=O)NC(C)c2ccc(C3(C(F)(F)F)CC3)cc2)cc(=O)[nH]1 (single isomer, unassigned) [Example 686, (S)- or (R)-2-methyl-6-oxo-N-(1-(4-(1-(trifluoromethyl)cyclopropyl)phenyl)-ethyl)-1,6-dihydropyrimidine-4-carboxamide]",> 2960 nM
9,"CC(NC(=O)c1cc(=O)[nH]c(C2CC2)n1)c1ccc(C(C)(C)C(F)(F)F)cc1 (single isomer, unassigned) [Example 697]",115 nM
10,"CC(C)(C)[C@@H](NC(=O)c1cc(=O)[nH]c(-c2ccccc2)n1)c1ccc(C(F)(F)F)cc1F [Example 545, N-{(1R)-1-[2-fluoro-4-(trifluoromethyl)phenyl]-2,2-dimethylpropyl}-6-oxo-2-phenyl-1,6-dihydropyrimidine-4-carboxamide]",1.2 nM
11,"Cc1nc(C(=O)NC(C)(C)c2ccc3c(c2)OC(F)(F)O3)cc(=O)[nH]1 [Example 604, N-[1-(2,2-difluoro-1,3-benzodioxol-5-yl)-1-methylethyl]-2-methyl-6-oxo-1,6-dihydropyrimidine-4-carboxamide]",108 nM
12,"CC[C@@H](NC(=O)c1cc(=O)[nH]c(C)n1)c1ccc(C(F)F)cc1 [Example 652, N-{(1R)-1-[4-(difluoromethyl)phenyl]propyl}-2-methyl-6-oxo-1,6-dihydropyrimidine-4-carboxamide]",138 nM
13,"CC1(c2ccc(C(NC(=O)c3cc(=O)[nH]c(-c4ccccc4)n3)C(C)(C)C)cc2F)CC1 (single isomer, unassigned) [Example 714, (S)- or (R)-N-(1-(3-fluoro-4-(1-methylcyclopropyl)phenyl)-2,2-dimethylpropyl)-6-oxo-2-phenyl-1,6-dihydropyrimidine-4-carboxamide]",~1820 nM
14,"O=C(N[C@@H]1COCc2cc(C(F)(F)F)ccc21)c1cc(=O)[nH]c(-c2ccccc2)n1 [Example 551, 6-oxo-2-phenyl-N-[(4S)-7-(trifluoromethyl)-3,4-dihydro-1H-isochromen-4-yl]-1,6-dihydropyrimidine-4-carboxamide]",157 nM
15,"Cc1nc(C(=O)NC(C)(C)c2ccc(C(F)(F)F)c(Cl)c2)cc(=O)[nH]1 [Example 641, N-{1-[3-chloro-4-(trifluoromethyl)phenyl]-1-methylethyl}-2-methyl-6-oxo-1,6-dihydropyrimidine-4-carboxamide]",32 nM
16,"CC(NC(=O)c1cc(=O)[nH]c(C2CC2)n1)c1ccc(C2(C(F)(F)F)CC2)cc1 (single isomer, unassigned) [Example 688, (S)- or (R)-2-cyclopropyl-6-oxo-N-(1-(4-(1-(trifluoromethyl)cyclopropyl)phenyl)-ethyl)-1,6-dihydropyrimidine-4-carboxamide]",> 2960 nM
17,"CC1(c2ccc(C(NC(=O)c3cc(=O)[nH]c(C4CC4)n3)C(C)(C)C)cc2F)CC1 (single isomer, unassigned) [Example 713, (R)- or (S)-2-cyclopropyl-N-(1-(3-fluoro-4-(1-methylcyclopropyl)phenyl)-2,2-dimethylpropyl)-6-oxo-1,6-dihydropyrimidine-4-carboxamide]",1.5 nM

row,SMILES,Ki
1,"CC[C@@H](NC(=O)c1cc(=O)[nH]c(C)n1)c1ccc2c(c1)OC(F)(F)O2 [Example 632, N-[(1R)-1-(2,2-difluoro-1,3-benzodioxol-5-yl)propyl]-2-methyl-6-oxo-1,6-dihydropyrimidine-4-carboxamide]",106 nM
2,"Cc1nc(C(=O)N[C@@H](c2ccc3c(c2)OC(F)(F)O3)C2(C)CC2)cc(=O)[nH]1 [Example 634, N-[(R)-(2,2-difluoro-1,3-benzodioxol-5-yl)(1-methylcyclopropyl)methyl]-2-methyl-6-oxo-1,6-dihydropyrimide-4-carboxamide]",29 nM
3,"Cc1nc(C(=O)NC(CO)(CO)c2ccc(C(F)(F)F)cc2)cc(=O)[nH]1 [Example 605, N-{2-hydroxy-1-(hydroxymethyl)-1-[4-(trifluoromethyl)phenyl]ethyl}-2-methyl-6-oxo-1,6-dihydropyrimidine-4-carboxamide]",102 nM
4,"CCc1nc(C(=O)N[C@@H](c2ccc(C(F)(F)F)c(F)c2)C2CC2)cc(=O)[nH]1 [Example 603, N-{(R)-cyclopropyl[3-fluoro-4-(trifluoromethyl)phenyl]methyl}-2-ethyl-6-oxo-1,6-dihydropyrimidine-4-carboxamide]",7.2 nM
5,"CC1([C@@H](NC(=O)c2cc(=O)[nH]c(-c3ccccc3)n2)c2ccc(S(F)(F)(F)(F)F)cc2)CC1 [Example 549, N-{(R)-(1-methylcyclopropyl)[4-(pentafluoro-λ^6-sulfanyl)phenyl]methyl}-6-oxo-2-phenyl-1,6-dihydropyrimidine-4-carboxamide]",4.5 nM
6,"Cc1nc(C(=O)NC2(c3ccc(OC(C)(C)C)cc3)CC2)cc(=O)[nH]1 [Example 626, N-[1-(4-tert-butoxyphenyl)cyclopropyl]-2-methyl-6-oxo-1,6-dihydropyrimidine-4-carboxamide]",58 nM
7,"CC(C)(C)c1ccc([C@H](NC(=O)c2cc(=O)[nH]c(-c3ncccn3)n2)C2(C)CC2)cc1 [Example 563, N-[(R)-(4-tert-butylphenyl)(1-methylcyclopropyl)methyl]-6-oxo-1,6-dihydro-2,2′-bipyrimidine-4-carboxamide]",27 nM
8,"CC(C)c1ccc([C@H](NC(=O)c2cc(=O)[nH]c(-c3ccccc3)n2)C2(C)CC2)cc1 [Example 547, N-{(R)-(1-methylcyclopropyl)[4-(1-methylethyl)phenyl]methyl}-6-oxo-2-phenyl-1,6-dihydropyrimidine-4-carboxamide]",1.8 nM
9,"C[C@@H](NC(=O)c1cc(=O)[nH]c(-c2ccccc2)n1)c1cc(F)c(C(F)(F)F)cc1F [Example 550, N-{(1R)-1-[2,5-difluoro-4-(trifluoromethyl)phenyl]ethyl}-6-oxo-2-phenyl-1,6-dihydropyrimidine-4-carboxamide]",17 nM
10,"Cc1nc(C(=O)N[C@H](C)c2ccc(C(F)F)cc2)cc(=O)[nH]1 [Example 656, N-{(1R)-1-[4-(difluoromethyl)phenyl]ethyl}-2-methyl-6-oxo-1,6-dihydropyrimidine-4-carboxamide]",111 nM
11,"Cc1nc(C(=O)N[C@H](C)c2ccc3c(c2)OC(F)(F)O3)cc(=O)[nH]1 [Example 606, N-[(1R)-1-(2,2-difluoro-1,3-benzodioxol-5-yl)ethyl]-2-methyl-6-oxo-1,6-dihydropyrimidine-4-carboxamide]",237 nM
12,"Cc1nc(C(=O)N[C@@H](c2ccc(C3CC3)cc2)C2(C)CC2)cc(=O)[nH]1 [Example 658, N-[(R)-(4-cyclopropylphenyl)(1-methylcyclopropyl)methyl]-2-methyl-6-oxo-1,6-dihydropyrimidine-4-carboxamide]",3.8 nM
13,"Cc1nc(C(=O)N[C@@H](c2ccc(C(F)F)c(F)c2)C(C)C)cc(=O)[nH]1 [Example 650, N-{(1R)-1-[4-(difluoromethyl)-3-fluorophenyl]-2-methylpropyl}-2-methyl-6-oxo-1,6-dihydropyrimidine-4-carboxamide]",33 nM
14,"CCc1nc(C(=O)NC(C)(C)c2ccc(C(F)(F)F)cc2)cc(=O)[nH]1 [Example 600, 2-ethyl-N-{1-methyl-1-[4-(trifluoromethyl)phenyl]ethyl}-6-oxo-1,6-dihydropyrimidine-4-carboxamide]",21 nM
15,"CC(C)(NC(=O)c1cc(=O)[nH]c(-c2ncccn2)n1)c1ccc(SC(F)(F)F)cc1 [Example 577, N-(1-methyl-1-{4-[(trifluoromethyl)sulfanyl]phenyl}ethyl)-6-oxo-1,6-dihydro-2,2′-bipyrimidine-4-carboxamide]",287 nM
16,"Cc1nc(C(=O)NC2(c3ccc(C(F)(F)F)cc3F)CC2)cc(=O)[nH]1 [Example 625, N-{1-[2-fluoro-4-(trifluoromethyl)phenyl]cyclopropyl}-2-methyl-6-oxo-1,6-dihydropyrimidine-4-carboxamide]",51 nM
